Reference: patent US20220213063A1, “N-[l-(5-BROMO-2-PYRIMIDIN-2-YL-1,2,4-TRIAZOL-3-YL)ETHYL]-2-CYCLOPROPYL-6-(TRIFLUOROMETHYL)PYRIDINE-4-CARBOXAMIDE DERIVATIVES AND RELATED COMPOUNDS AS INSECTICIDES” (SYNGENTA CROP PROTECTION AG, priority 2019, published 2022)

Tests used:
Assay type in all cases: in vivo
[1] = test system: Diabrotica Balteata (Corn Root Worm); experiment: Example B1: Diabrotica balteata (corn root worm), sprayed maize sprouts; details: 96 h, application rate of 200 ppm, L2 larvae, 4 days after infestation, in comparison to untreated samples, read-out: control in at least one of the two categories (mortality or growth inhibition)
Experimental: Example B1: Diabrotica Balteata (Corn Root Worm)
Maize sprouts placed onto an agar layer in 24-well microtiter plates were treated with aqueous test solutions prepared from 10'000 ppm DMSO stock solutions by spraying. After drying, the plates were infested with L2 larvae (6 to 10 per well). The samples were assessed for mortality and growth inhibition in comparison to untreated samples 4 days after infestation.
The following compounds gave an effect of at least 80% control in at least one of the two categories (mortality or growth inhibition) at an application rate of 200 ppm: […]

[2] = test system: Chilo suppressalis (Striped Rice Stemborer); experiment: Example B4: Chilo suppressalis (striped rice stemborer), artificial diet; details: 144 h, application rate of 200 ppm, L2 larvae, 6 days after infestation, in comparison to untreated samples, read-out: control in at least one of the three categories (mortality, anti-feedant or growth inhibition)
Experimental: Example B4: Chilo suppressalis (Striped Rice Stemborer)
24-well microtiter plates with artificial diet were treated with aqueous test solutions prepared from 10'000 ppm DMSO stock solutions by pipetting. After drying, the plates were infested with L2 larvae (6-8 per well). The samples were assessed for mortality, anti-feeding effect, and growth inhibition in comparison to untreated samples 6 days after infestation. Control of Chilo suppressalis by a test sample is given when at least one of the categories mortality, anti-feedant effect, and growth inhibition is higher than the untreated sample.

[3] = test system: Plutella xylostella (Diamond Back Moth); experiment: Example B5: Plutella xylostella (diamond back moth), artificial diet; details: 192 h, application rate of 200 ppm, eggs, 8 days after infestation, in comparison to untreated samples, read-out: effect in at least one of the two categories (mortality or growth inhibition)
Experimental: Example B5: Plutella xylostella (Diamond Back Moth)
24-well microtiter plates with artificial diet were treated with aqueous test solutions prepared from 10'000 ppm DMSO stock solutions by pipetting. After drying, Plutella eggs were pipetted through a plastic stencil onto a gel blotting paper and the plate was closed with it. The samples were assessed for mortality and growth inhibition in comparison to untreated samples 8 days after infestation.
The following compounds gave an effect of at least 80% in at least one of the two categories (mortality or growth inhibition) at an application rate of 200 ppm: […]

[4] = test system: Spodoptera littoralis (Egyptian Cotton Leaf Worm); experiment: Example B9: Spodoptera littoralis (Egyptian cotton leaf worm), sprayed cotton leaf discs; details: foliar, 72 h, application rate of 200 ppm, L1 larvae, 3 days after infestation, in comparison to untreated samples, read-out: control in at least one of the three categories (mortality, anti-feedant effect, or growth inhibition)
Experimental: Example B9: Spodoptera littoralis (Egyptian Cotton Leaf Worm)
Cotton leaf discs were placed onto agar in 24-well microtiter plates and sprayed with aqueous test solutions prepared from 10'000 ppm DMSO stock solutions. After drying the leaf discs were infested with five L1 larvae. The samples were assessed for mortality, anti-feeding effect, and growth inhibition in comparison to untreated samples 3 days after infestation. Control of Spodoptera littoralis by a test sample is given when at least one of the categories mortality, anti-feedant effect, and growth inhibition is higher than the untreated sample.

[5] = test system: Frankliniella occidentalis (Western Flower Thrips); experiment: Example B3: Frankliniella occidentalis (western flower thrips), feeding/contact activity; details: 168 h, application rate of 200 ppm, population of mixed ages, 7 days after infestation
Experimental: Example B3: Frankliniella occidentalis (Western Flower Thrips):Feeding/Contact Activity
Sunflower leaf discs were placed on agar in 24-well microtiter plates and sprayed with aqueous test solutions prepared from 10'000 DMSO stock solutions. After drying the leaf discs were infested with a Frankliniella population of mixed ages. The samples were assessed for mortality 7 days after infestation.

[6] = test system: Myzus persicae (Green Peach Aphid); experiment: Example B8: Myzus persicae (green peach aphid), intrinsic activity; details: 120 h, test rate of 12 ppm, mixed with sucrose solution, 5 days after infestation
Description: Example B8: Myzus persicae (Green Peach Aphid): Intrinsic Activity
Test compounds prepared from 10'000 ppm DMSO stock solutions were applied by pipette into 24-well microtiter plates and mixed with sucrose solution. The plates were closed with a stretched Parafilm. A plastic stencil with 24 holes was placed onto the plate and infested pea seedlings were placed directly on the Parafilm. The infested plate was closed with a gel blotting paper and another plastic stencil and then turned upside down. The samples were assessed for mortality 5 days after infestation.

CC(NC(=O)c1cc(C(F)(F)F)nc(C2(C#N)CC2)c1)c1nc(Br)nn1-c1ccc(F)cn1 (stereo not shown) [Compound P1, N-[1-[5-bromo-2-(5-fluoro-2-pyridyl)-1,2,4-triazol-3-yl]ethyl]-2-(1-cyanocyclopropyl)-6-(trifluoromethyl)pyridine-4-carboxamide]
≥ 80%: percent control (mortality or growth inhibition) at 200 ppm [1] | percent control (mortality, anti-feedant effect or growth inhibition) at 200 ppm [2] | percent effect (mortality or growth inhibition) at 200 ppm [3] | percent control (mortality, anti-feedant effect or growth inhibition) at 200 ppm [4]

CC(NC(=O)c1cc(C(F)(F)F)nc(C2(C#N)CC2)c1)c1nc(Br)nn1-c1ncccn1 (stereo not shown) [Compound P3, N-[1-(5-bromo-2-pyrimidin-2-yl-1,2,4-triazol-3-yl)ethyl]-2-(1-cyanocyclopropyl)-6-(trifluoromethyl)pyridine-4-carboxamide]
≥ 80%: percent control (mortality or growth inhibition) at 200 ppm [1] | mortality at 200 ppm [5] | percent control (mortality, anti-feedant effect or growth inhibition) at 200 ppm [2] | percent effect (mortality or growth inhibition) at 200 ppm [3] | mortality at 12 ppm [6] | percent control (mortality, anti-feedant effect or growth inhibition) at 200 ppm [4]

CC(NC(=O)c1cc(C(F)(F)F)cc(C(F)(F)C2CC2)c1)c1nc(Br)nn1-c1ncccn1 (stereo not shown) [Compound P4, N-[1-(5-bromo-2-pyrimidin-2-yl-1,2,4-triazol-3-yl)ethyl]-3-[cyclopropyl(difluoro)methyl]-5-(trifluoromethyl)benzamide]
≥ 80%: percent control (mortality or growth inhibition) at 200 ppm [1] | percent control (mortality, anti-feedant effect or growth inhibition) at 200 ppm [2] | percent effect (mortality or growth inhibition) at 200 ppm [3] | percent control (mortality, anti-feedant effect or growth inhibition) at 200 ppm [4]

CC(NC(=O)c1cc(C2CC2)nc(C(F)(F)F)c1)c1nc(Br)nn1-c1ncccn1 (stereo not shown) [Compound P5, N-[1-(5-bromo-2-pyrimidin-2-yl-1,2,4-triazol-3-yl)ethyl]-2-cyclopropyl-6-(trifluoromethyl)pyridine-4-carboxamide]
≥ 80%: percent control (mortality or growth inhibition) at 200 ppm [1] | percent control (mortality, anti-feedant effect or growth inhibition) at 200 ppm [2] | percent effect (mortality or growth inhibition) at 200 ppm [3] | percent control (mortality, anti-feedant effect or growth inhibition) at 200 ppm [4]

CC(NC(=O)c1cc(C2CC2)cc(C(F)(F)F)c1)c1nc(Br)nn1-c1ncccn1 (stereo not shown) [Compound P6, N-[1-(5-bromo-2-pyrimidin-2-yl-1,2,4-triazol-3-yl)ethyl]-3-cyclopropyl-5-(trifluoromethyl)benzamide]
≥ 80%: percent control (mortality or growth inhibition) at 200 ppm [1] | percent control (mortality, anti-feedant effect or growth inhibition) at 200 ppm [2] | percent effect (mortality or growth inhibition) at 200 ppm [3] | percent control (mortality, anti-feedant effect or growth inhibition) at 200 ppm [4]

CC(NC(=O)c1cc(C2CC2C(F)(F)F)cc(C(F)(F)F)c1)c1nc(Br)nn1-c1ncccn1 (stereo not shown) [Compound P7, N-[1-(5-bromo-2-pyrimidin-2-yl-1,2,4-triazol-3-yl)ethyl]-3-(trifluoromethyl)-5-[2-(trifluoromethyl)cyclopropyl]benzamide]
≥ 80%: percent control (mortality or growth inhibition) at 200 ppm [1] | percent control (mortality, anti-feedant effect or growth inhibition) at 200 ppm [2] | percent effect (mortality or growth inhibition) at 200 ppm [3] | percent control (mortality, anti-feedant effect or growth inhibition) at 200 ppm [4]

CC(NC(=O)c1cc(C2CC2)cc(C(F)(F)F)c1)c1nc(Br)nn1-c1ccc(F)cn1 (stereo not shown) [Compound P8, N-[1-[5-bromo-2-(5-fluoro-2-pyridyl)-1,2,4-triazol-3-yl]ethyl]-3-cyclopropyl-5-(trifluoromethyl)benzamide]
≥ 80%: percent control (mortality, anti-feedant effect or growth inhibition) at 200 ppm [2] | percent effect (mortality or growth inhibition) at 200 ppm [3]
